# Where “and” joins values, the source holds several entries; their conditions need not be identical. Equal values may be shown once.
# How the values were obtained:
# human c-KIT = target: T1, human c-KIT (Homo sapiens, UniProt P10721); test: c-KIT cellular assay: Ba/F3 proliferation with SCF, without IL3; type: cell-based; details: for Cell proliferation of the IL-3 dependent Ba/F3 cell line Mean (% prolif): SCF, no IL3, 48 h; for IC50 ratio of IL3/SCF (unspecific/c-KIT): Ba/F3 expressing WT human c-KIT, 72 h
# T1 construct: expressed in transfected cells; host or cells: Ba/F3 (murine IL3-dependent pro-B cell line)
# T1 sequence (P10721 26-976): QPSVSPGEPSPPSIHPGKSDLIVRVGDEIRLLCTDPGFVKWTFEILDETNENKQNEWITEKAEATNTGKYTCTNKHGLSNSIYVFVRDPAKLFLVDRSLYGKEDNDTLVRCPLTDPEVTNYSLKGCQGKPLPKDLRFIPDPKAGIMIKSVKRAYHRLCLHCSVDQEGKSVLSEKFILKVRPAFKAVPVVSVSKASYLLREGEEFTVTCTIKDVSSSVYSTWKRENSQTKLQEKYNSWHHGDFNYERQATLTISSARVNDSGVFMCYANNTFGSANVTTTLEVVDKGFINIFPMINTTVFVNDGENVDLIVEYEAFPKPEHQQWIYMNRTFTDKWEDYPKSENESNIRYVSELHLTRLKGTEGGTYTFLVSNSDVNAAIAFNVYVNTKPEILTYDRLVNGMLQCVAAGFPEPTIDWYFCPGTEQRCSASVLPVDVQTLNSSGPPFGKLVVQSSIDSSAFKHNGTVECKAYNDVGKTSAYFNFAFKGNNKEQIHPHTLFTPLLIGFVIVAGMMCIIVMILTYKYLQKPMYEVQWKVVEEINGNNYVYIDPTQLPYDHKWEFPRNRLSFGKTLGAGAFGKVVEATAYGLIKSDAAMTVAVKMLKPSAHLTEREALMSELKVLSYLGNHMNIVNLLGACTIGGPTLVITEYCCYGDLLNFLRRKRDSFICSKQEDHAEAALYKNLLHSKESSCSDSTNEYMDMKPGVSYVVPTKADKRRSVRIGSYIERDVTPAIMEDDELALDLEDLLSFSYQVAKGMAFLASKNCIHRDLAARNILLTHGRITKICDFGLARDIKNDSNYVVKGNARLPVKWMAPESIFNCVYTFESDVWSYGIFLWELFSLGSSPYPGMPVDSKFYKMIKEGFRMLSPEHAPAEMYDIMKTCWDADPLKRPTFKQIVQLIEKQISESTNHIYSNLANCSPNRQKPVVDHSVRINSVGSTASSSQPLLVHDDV
# Method: The generation of Ba/F3 cells expressing wild-type human c-KIT has been previously described by us[55],[56]. For the assay of Ba/F3 cell proliferation, plates were seeded with a total of 10,000 cells per well. Cells were supplemented, or not, with either 0.1% IL3 or 250 ng/ml murine SCF. IL3 was obtained from conditioned medium from X63-omIL-3 cells (obtained from Fritz Melchers laboratory (Berlin, Germany)) and murine SCF, which activates c-KIT, was purified from the conditioned medium of SCF-producing CHO cells. Cells were supplemented with compounds at varying concentrations (final 0.1% DMSO). […] The amount of reduced dye formed by metabolically active cells was quantified by its fluorescence measured at 560 nm (excitation) and 590 nm (emission) in a microplate reader (FLUOstar Omega, BMG Labtech). A blank well without cells was used as a background control. Each experiment was performed at least three times (with technical triplicates) and data are presented as the mean ± SD.
# CCRF-CEM cells [1] = test: γH2A.X measurements (DNA damage); type: cell-based, human; details: 24 h, dT 200 µM, others 1 µM, presence of dC
# Method: (§1) CCRF-CEM cells were seeded at 100,000 cells/ml, and treated with DMSO (0.01%) as vehicle control or dT (200 μΜ), and/or dC, OR0642, DI-87 and DI-39 (1 μΜ). For cell cycle analysis, cells were harvested after 24 h, fixed in 4% paraformaldehyde, permeabilized with 0.15% Triton X100, and DNA content was determined using 1 μg/ml DAPI. For apoptosis assay, cells were harvested after 72 h and cell death was assayed using Annexin V-APC and 7AAD following manufacturer’s instructions (Biolegend, 640930). For γH2A.X measurements, cells were harvested after 24 h, fixed in 4% paraformaldehyde and permeabilized with 0.15% Triton X100. Then, cells were stained with the phospho-H2AX (pS139 H2AX, Biolegend, 613402, 1:1000) specific primary antibody, Alexa-Fluor 488 secondary antibody (ThermoFisher, A21202, 1:1000) and DAPI. All acquisitions were performed on a BD Fortessa cytometer, and analysis of flow cytometry data was performed using FlowJo™ Software 10.7.1 (BD Life Sciences). Each experiment was performed three times. Figures exemplifying the gating strategy are provided in the Supplementary Information (Supplementary Figs. 29–31).
# Cells were seeded, treated and stained as described for flow cytometry analysis, and then spread on a microscope slide using cytospin. Slides were mounted with […] mounting medium with DAPI (Vector Laboratories). […]
# CCRF-CEM cells [2] = test: Nucleotides pool measurements; type: cell-based, human; details: 24 h, dT 200 µM, dC 1 µM, OR0642 1 µM
# Method: CCRF-CEM cells exposed to compounds (dT (200 µM) and/or dC, OR0642, DI-87 and DI-39 (1 µM)) for 0 and 24 h were washed, counted and pelleted. Pellets were extracted with the cold sampling solution (acetonitrile (4) / methanol (4)/125 mM formic acid (2)), vortexed and placed 1 h at −20 °C. Then centrifuged and evaporated. Central metabolites were separated on an ionic chromatography column IonPac AS11 (250 × 2 mm i.d.; Dionex). Solvent used was KOH at a flow rate of 350 µl/min. The column was then equilibrated for 6 min at the initial conditions before the next sample was analyzed. The volume of injection was 15 µl. High-resolution experiments were performed with an ICS5000+, ion chromatography system (Dionex) system coupled to an Orbitrap Qexactive+ mass spectrometer (Thermo Fisher Scientific, Waltham) equipped with a heated electrospray ionization probe. MS analyses were performed in negative FTMS mode at a resolution of 140,000 (at 400 m/z) in full-scan mode, with the following source parameters: 325 °C for the capillary temperature, 380 °C for the source heater temperature, 50 a.u. (arbitrary unit) for the sheath gas flow rate, 5 a.u. for the auxiliary gas flow rate, 50% for the S-Lens RF level, and 2.75 kV for the source voltage. Metabolites were determined by extracting the exact mass with a tolerance of 5 ppm. Each experiment was performed three times.
# [3] = tested on: human CCRF-CEM T-ALL cell line expressing luciferase; test: Systemic leukemia model: NSG mice inoculated intravenously with luciferase CCRF-CEM cells; type: in vivo, mouse; parameters: hCD45+ populations determined by flux cytometry at day 21 of CCRF-CEM bearing mice / Whole body radiance of CCRF-CEM bearing mice: unit not given here; details: for effect on leukemic progression: dT 1.5 g/kg, OR0642 40 mg/kg IP; for Whole body radiance of CCRF-CEM bearing mice / hCD45+ populations determined by flux cytometry at day 21 of CCRF-CEM bearing mice / Whole body radiance at day 21 of CCRF-CEM bearing mice / Survival days of CCRF-CEM bearing mice: dT 1,5 g/Kg, OR0642 40 mg/Kg; for hCD45+ populations determined by flux cytometry at day 21 of CCRF-CEM bearing mice: day 21, blood; for Whole body radiance at day 21 of CCRF-CEM bearing mice: day 21, individual mice (Figure 4d);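 on hCD45+ populations determined by flux cytometry at day 21 of CCRF-CEM bearing mice: Bead-counted human ALL blasts per volume of peripheral blood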
# CCRF-CEM cells [4] = test: Annexin V apoptosis assay; type: cell-based, human; details: 72 h, dT 200 µM, others 1 µM, presence of dC
# Method: as §1
SMILES,Cell proliferation of the IL-3 dependent Ba/F3 cell line Mean (% prolif) (human c-KIT; 3.7 nM),Cell proliferation of the IL-3 dependent Ba/F3 cell line Mean (% prolif) (human c-KIT; 11 nM),Cell proliferation of the IL-3 dependent Ba/F3 cell line Mean (% prolif) (human c-KIT; 33 nM),Cell proliferation of the IL-3 dependent Ba/F3 cell line Mean (% prolif) (human c-KIT; 99 nM),Cell proliferation of the IL-3 dependent Ba/F3 cell line Mean (% prolif) (human c-KIT; 296 nM),Cell proliferation of the IL-3 dependent Ba/F3 cell line Mean (% prolif) (human c-KIT; 889 nM),Cell proliferation of the IL-3 dependent Ba/F3 cell line Mean (% prolif) (human c-KIT; 2667 nM),Cell proliferation of the IL-3 dependent Ba/F3 cell line Mean (% prolif) (human c-KIT; 8000 nM),Cell proliferation of the IL-3 dependent Ba/F3 cell line Mean (% prolif) (human c-KIT; 24000 nM),IC50 ratio of IL3/SCF (unspecific/c-KIT) (human c-KIT),"DNA damage, γH2A.X (CCRF-CEM cells [1])",effect on nucleotide pools (CCRF-CEM cells [2]),effect on leukemic progression [3],"apoptosis, Annexin V staining (CCRF-CEM cells [4])",other results
Cc1ccc(NC(=O)c2ccc(CN3CCN(C)CC3)cc2)cc1Nc1nc(-c2nccc(N)n2)cs1 [dCKi1],98.5%,97.1%,99.7%,87.3%,83.7%,66.8%,24.0%,0.4%,0.35%,7.6,–,–,–,–,–
CCCN(c1nc(-c2nc(N)cc(N)n2)cs1)c1cc(-c2ccc(S(=O)(=O)N3CCN(C)CC3)cc2C(F)(F)F)ccc1C [OR0642],–,–,–,–,–,–,–,–,–,–,neither dT nor OR0642 alone induced DNA damage or apoptosis,did not affect the nucleotide pools,did not show any antiproliferative effect,neither dT nor OR0642 alone induced DNA damage or apoptosis,"Whole body radiance of CCRF-CEM bearing mice ([3]; day 0 (before treatment), individual mice, 40 mg/kg): 1948 and 1585 and 1112 and 1289 and 1143 and 2120 and 1563 and 1766 and 1453; Whole body radiance of CCRF-CEM bearing mice ([3]; day 7, individual mice, 40 mg/kg): 5130 and 1470 and 1540 and 826 and 1990 and 2090 and 4750 and 1530 and 2610; Whole body radiance of CCRF-CEM bearing mice ([3]; day 14, individual mice, 40 mg/kg): 392000 and 24500 and 395000 and 489000 and 137000 and 327000 and 469000 and 291000 and 53900; hCD45+ populations determined by flux cytometry at day 21 of CCRF-CEM bearing mice ([3]; individual mice, 40 mg/kg): 216.1 and 194.2 and 86.4 and 80.1 and 74.9 and 211.8 and 120.7 and 113.3 and 112.2; Whole body radiance of CCRF-CEM bearing mice ([3]; day 21, individual mice (Figure 4b), 40 mg/kg): 2070000 and 4600000 and 1490000 and 6950000 and 1760000 and 5460000 and 5470000 and 5010000 and 3010000; Whole body radiance at day 21 of CCRF-CEM bearing mice ([3]; 40 mg/kg): 2180000 and 4850000 and 1550000 and 7340000 and 1840000 and 5680000 and 5590000 and 4590000 and 3150000; Survival days of CCRF-CEM bearing mice ([3]; individual mice, 40 mg/kg): 25 days and 26 days and 27 days"
"Cc1cn([C@H]2C[C@H](O)[C@@H](CO)O2)c(=O)[nH]c1=O [dT, thymidine]",–,–,–,–,–,–,–,–,–,–,neither dT nor OR0642 alone induced DNA damage or apoptosis,increased the dTTP pool,scarcely reduced leukemic progression,neither dT nor OR0642 alone induced DNA damage or apoptosis,"Whole body radiance of CCRF-CEM bearing mice ([3]; day 0 (before treatment), individual mice): 2430 and 1179 and 1269 and 2044 and 1251 and 1181 and 1090; Whole body radiance of CCRF-CEM bearing mice ([3]; day 7, individual mice): 1580 and 1140 and 2350 and 2150 and 1440 and 1960 and 2210; Whole body radiance of CCRF-CEM bearing mice ([3]; day 14, individual mice): 94100 and 37700 and 196000 and 167000 and 8080 and 182000 and 106000; hCD45+ populations determined by flux cytometry at day 21 of CCRF-CEM bearing mice ([3]; individual mice): 24.2 and 22.7 and 31.6 and 8.9 and 23.4 and 14.2; Whole body radiance of CCRF-CEM bearing mice ([3]; day 21, individual mice (Figure 4b)): 1150000 and 1620000 and 2390000 and 1910000 and 1880000 and 520000 and 953000; Whole body radiance at day 21 of CCRF-CEM bearing mice [3]: 1720000 and 2530000 and 2010000 and 1980000 and 545000 and 1000000 and 1210000; Survival days of CCRF-CEM bearing mice ([3]; individual mice): 28 days and 29 days and 30 days"
"Cc1ccc(NC(=O)c2ccc(CN3CCN(C)CC3)cc2)cc1Nc1nc(-c2nc(N)cc(N)n2)cs1 [dCKi2, N-(3-((4-(4,6-diaminopyrimidin-2-yl)thiazol-2-yl)amino)-4-methylphenyl)-4-((4-methylpiperazin-1-yl)methyl)benzamide]",97.2%,96.0%,97.1%,91.8%,94.5%,86.6%,76.3%,48.8%,6.7%,2.7,–,–,–,–,–

# Source: publication PMC10227015, “From a drug repositioning to a structure-based drug design approach to tackle acute lymphoblastic leukemia” (Nature Communications, 2023)
